From the COVID Moonshot data (paper PMC7615835)
Several values for one entry are separate records, joined by “and”; a condition that tells them apart may be missing. Equal values may be shown once.

Experiments:
[1] = in vivo, iv, 0.5 mg/kg
[2] = molecular target: SARS-CoV-2 Main Protease (SARS-CoV-2) (UniProt P0DTD1)

SMILES	AUC(0-inf) ([1]; rat)	AUC(0-t) ([1]; rat)	C0 ([1]; rat)	MRT inf ([1]; rat)	MRT last ([1]; rat)	Vd ([1]; rat)	clearance ([1]; rat)	half-life ([1]; rat)	IC50 [2]	other results
C=CC(=O)N(C(=O)[C@@H]1CCOc2ccc(Cl)cc21)c1cncc2ccccc12 (stereo in doubt)										CC50 (a549): > 9990 nM; CC50 (vero): > 9990 nM
O=C(Nc1cncc2ccccc12)C1CN(S(=O)(=O)CCO)Cc2ccc(Cl)cc21 (stereo not given)	241 ng·h/mL and 283 ng·h/mL	236 ng·h/mL and 280 ng·h/mL	441 ng/mL and 590 ng/mL	56.2 min and 49.7 min	44.2 min and 52.6 min	1.72 L/kg and 1.66 L/kg	34.6 mL/min/kg and 29.6 mL/min/kg	47.1 min and 72.6 min	232 nM	
COc1ccc2cncc(NC(=O)[C@H]3CCNc4cc(Cl)c(Cl)cc43)c2c1 (stereo in doubt)									< 50 nM and 82.3 nM and 53.6 nM	AUC(0-inf) ([1]; mouse): 113 ng·h/mL and 130 ng·h/mL; AUC(0-t) ([1]; mouse): 113 ng·h/mL and 128 ng·h/mL; C0 ([1]; mouse): 179 ng/mL and 202 ng/mL; MRT inf ([1]; mouse): 28.6 min and 30.8 min; MRT last ([1]; mouse): 27.6 min and 28.9 min; Vd ([1]; mouse): 2.09 L/kg and 1.97 L/kg; clearance ([1]; mouse): 73.4 mL/min/kg and 64 mL/min/kg; half-life ([1]; mouse): 16.1 min and 19.4 min
O=C(Cn1nc2n(c(=O)c1=O)CCC2)NC(C(=O)Nc1cncc2ccccc12)c1cccc(Cl)c1 (stereo not given)										CC50 (vero): > 9990 nM
COC1(C(=O)Nc2cncc3ccc(S(C)(=O)=O)cc23)CCOc2ccc(Cl)cc21 (stereo not given)									426 nM and 423 nM	AUC(0-inf) ([1]; mouse): 51.9 ng·h/mL and 61.9 ng·h/mL; AUC(0-t) ([1]; mouse): 50.3 ng·h/mL; C0 ([1]; mouse): 142 ng/mL and 157 ng/mL; MRT inf ([1]; mouse): 31.3 min and 26.9 min; MRT last ([1]; mouse): 27.4 min and 24.5 min; Vd ([1]; mouse): 5.03 L/kg and 3.65 L/kg; clearance ([1]; mouse): 161 mL/min/kg and 135 mL/min/kg; half-life ([1]; mouse): 25.3 min and 22.1 min
N#Cc1ccc2cncc(NC(=O)C3CCOc4ccc(Cl)cc43)c2c1 (stereo not given)										CC50 (a549): > 10000 nM
O=C(Cc1cccc(Cl)c1)Nc1c[nH]c(=O)c2ccccc12	200 ng·h/mL and 464 ng·h/mL	192 ng·h/mL and 458 ng·h/mL	496 ng/mL and 718 ng/mL	42.7 min and 34.1 min	29.2 min and 40.5 min	1.42 L/kg and 0.802 L/kg	41.6 mL/min/kg and 19.6 mL/min/kg	26.2 min and 25.4 min	> 99500 nM	
NC(=O)c1cc2c(NC(=O)C3CCOc4ccc(Cl)cc43)cncc2s1 (stereo not given)	488 ng·h/mL and 612 ng·h/mL	485 ng·h/mL and 604 ng·h/mL	706 ng/mL and 898 ng/mL	77.4 min and 69 min	65.4 min and 70.2 min	1.18 L/kg and 1.06 L/kg	17.1 mL/min/kg and 13.7 mL/min/kg	75 min and 84 min	761 nM	
O=C1NCC(C(=O)Nc2cncc3ccccc23)c2cc(Cl)ccc21 (stereo not given)	377 ng·h/mL and 428 ng·h/mL and 182 ng·h/mL	374 ng·h/mL and 422 ng·h/mL and 180 ng·h/mL	443 ng/mL and 648 ng/mL and 439 ng/mL	57.1 min and 75 min and 37.4 min	71.4 min and 53 min and 35 min	1.66 L/kg and 1.12 L/kg and 1.75 L/kg	22.1 mL/min/kg and 19.5 mL/min/kg and 46.8 mL/min/kg	64.8 min and 52 min and 34.7 min	208 nM	
CC1(C(=O)Nc2cncc3ccc(S(C)(=O)=O)cc23)CNC(=O)c2ccc(Cl)cc21 (stereo not given)	304 ng·h/mL and 309 ng·h/mL	292 ng·h/mL and 303 ng·h/mL	660 ng/mL and 636 ng/mL	38.1 min and 34.1 min	29.1 min and 35 min	1.08 L/kg and 1.19 L/kg	31.8 mL/min/kg and 32.2 mL/min/kg	26.9 min and 30.5 min	6620 nM	
CNC(=O)N1Cc2ccc(Cl)cc2C(C(=O)Nc2cncc3ccccc23)C1 (stereo not given)									272 nM	AUC(0-inf) ([1]; mouse): 97.6 ng·h/mL and 117 ng·h/mL; AUC(0-t) ([1]; mouse): 94.9 ng·h/mL and 115 ng·h/mL; C0 ([1]; mouse): 328 ng/mL and 570 ng/mL; MRT inf ([1]; mouse): 16.4 min and 13.4 min; MRT last ([1]; mouse): 14.7 min and 12.5 min; Vd ([1]; mouse): 1.32 L/kg and 0.896 L/kg; clearance ([1]; mouse): 80.4 mL/min/kg and 68.2 mL/min/kg; half-life ([1]; mouse): 11.5 min and 9.96 min
O=C(Cc1cccc(Cl)c1)Nc1cncc2cn[nH]c12	216 ng·h/mL and 364 ng·h/mL	216 ng·h/mL and 356 ng·h/mL	986 ng/mL and 1030 ng/mL	25.6 min and 15.7 min	15.4 min and 23.3 min	0.604 L/kg and 0.594 L/kg	38.6 mL/min/kg and 25.6 mL/min/kg	14.4 min and 19.9 min	2100 nM	
Cn1ncc2cncc(NC(=O)Cc3cccc(Cl)c3)c21	178 ng·h/mL and 250 ng·h/mL	178 ng·h/mL and 248 ng·h/mL	820 ng/mL and 1030 ng/mL	19.3 min and 15.2 min	14.9 min and 18.1 min	0.709 L/kg and 0.64 L/kg	46.7 mL/min/kg and 34.6 mL/min/kg	14.9 min and 17.9 min	1500 nM	
O=C(Nc1cncc2ccccc12)C1CN(S(=O)(=O)C2CC2)Cc2ccc(Cl)cc21 (stereo not given)									310 nM	AUC(0-inf) ([1]; mouse): 112 ng·h/mL and 120 ng·h/mL; AUC(0-t) ([1]; mouse): 109 ng·h/mL and 116 ng·h/mL; C0 ([1]; mouse): 314 ng/mL and 396 ng/mL; MRT inf ([1]; mouse): 17.5 min and 18 min; MRT last ([1]; mouse): 16 min and 15.5 min; Vd ([1]; mouse): 1.3 L/kg and 1.25 L/kg; clearance ([1]; mouse): 74.5 mL/min/kg and 69.4 mL/min/kg; half-life ([1]; mouse): 10.7 min and 12.7 min
O=C(Cc1cccc(Cl)c1)Nc1cncc2cc[nH]c12	129 ng·h/mL and 176 ng·h/mL and 114 ng·h/mL	128 ng·h/mL and 172 ng·h/mL and 113 ng·h/mL	320 ng/mL and 470 ng/mL and 344 ng/mL	29.9 min and 38.2 min and 23 min	35.3 min and 27 min and 21.6 min	2.47 L/kg and 1.46 L/kg and 2.1 L/kg	64.5 mL/min/kg and 48.4 mL/min/kg and 91.1 mL/min/kg	42.8 min and 22.7 min and 19.5 min	1900 nM	
O=C(Nc1cncc2cc(F)ccc12)C1CCS(=O)(=O)c2ccc(Cl)cc21 (stereo not given)	875 ng·h/mL and 1050 ng·h/mL	869 ng·h/mL and 1030 ng·h/mL	655 ng/mL and 704 ng/mL	118 min and 107 min	104 min and 111 min	1.03 L/kg and 0.95 L/kg	9.52 mL/min/kg and 8.12 mL/min/kg	69.6 min and 78 min	770 nM	
N#Cc1ncc(NC(=O)Cc2cccc(Cl)c2)c2ccccc12	242 ng·h/mL and 224 ng·h/mL	241 ng·h/mL and 222 ng·h/mL	809 ng/mL and 728 ng/mL	28.6 min and 29.3 min	28.2 min and 26.5 min	1.17 L/kg and 1.23 L/kg	39.9 mL/min/kg and 43.2 mL/min/kg	35.3 min and 42.1 min	65900 nM	
CS(=O)(=O)N1Cc2ccc(Cl)cc2C(C(=O)Nc2cncc3c2CCCC3)C1 (stereo not given)	196 ng·h/mL and 264 ng·h/mL	195 ng·h/mL and 262 ng·h/mL	541 ng/mL and 625 ng/mL	35.6 min and 31 min	29.8 min and 34 min	1.32 L/kg and 1.14 L/kg	42.5 mL/min/kg and 33 mL/min/kg	30.6 min and 25.6 min	642 nM	
CS(=O)(=O)c1ccc(N2CCNCC2)cc1									> 99500 nM	
Cc1cc(NC(=O)Cc2cncnc2)cc(OC2CC(=O)N2)c1 (stereo not given)									34600 nM and 34000 nM	
C=CC(=O)N(c1ccc(C(C)(C)C)cc1)C(C(=O)NCc1cccnc1)c1cccnc1 (stereo not given)									49900 nM	
CC1(C(=O)Nc2cncc3ccccc23)CNC(=O)c2ccc(Cl)cc21 (stereo not given)									876 nM	
C=CC(=O)N(c1ccc(C(C)(C)C)cc1)C(C(=O)NCc1ccc(F)cc1)c1cccnc1 (stereo not given)									23300 nM	
O=C(CCl)N1CCCN(S(=O)(=O)c2ccccc2F)CC1									15600 nM	
